According to US8227207B2, “Bioactive peptides derived from the proteins of egg white by means of enzymatic hydrolysis” (Consejo Superior de Investigaciones Cientifcas, priority 2004, dated 2012):
“Also recorded” adds a separate entry of the source. Residues, ends and D or L forms follow the SMILES beside them.

Assays:
[1] = Antioxidant activity, ABTS radical cation decolorization assay (TEAC)
From the text: In order to measure the antioxidant activity, the method developed by R. Re, N. Pellegrini, A. Proteggente, A. Pannala, M. Yang and C. Rice-Evans (Antioxidant activity applying an improved ABTS radical cation decolorization assay, Free Radical Biological Medicine, 1999, 26: 1231-1237) is used. The method is based on the disappearance of the radical ABTS^•+ (2,2-azinobis(3-ethylbenzothiazoline-6-sulphonic) acid) owing to the reducing action of different samples with antioxidant activity. […] The antioxidant activity is detected by the fall in the 734 nm absorbency time.
In order to generate the radical […], the compound ABTS (Sigma), dissolved in water at a concentration of 7 mM, is brought into contact with 2.45 mM potassium persulphate in a ratio of 1:2 for 24 hours in the absence of light. After 24 hours, the absorbency at 734 nm is adjusted to a value of 0.70 ±0.02 with 5 mM of phosphate buffer salt (PBS), 138 mM of NaCl, pH =7.4. In a standard experiment, 1 ml of this solution is added to 10 μl of the sample (1.5 mM) dissolved in 0.02 M sodium phosphate buffer, pH =6.5 The experiment is conducted in triplicate, with each sample being incubated with the radical ABTS^•+ for 10 minutes at 37° C., with readings of the absorbency at 734 nm being taken at 1, 6 and 10 minutes. Used as blank is 0.02 M sodium phosphate buffer, pH =6.5 and at the same time as the incubation of the samples is carried out, the radical […] is incubated without any antioxidant agent (control). The antioxidant activity of each sample is calculated with respect to the absorbency at 734 nm shown by the control. The antioxidant activity of the sample is expressed in relation to the antioxidant activity of TROLOX® (6-hydroxy-2,5,7,8-tetramethylchroman-2-carboxylic acid) (Sigma), analogous to vitamin E, by means of a TEAC value (Trolox equivalent antioxidant capacity) at a certain time.
Different ways of calculating the TEAC value have been developed. We use the method described by F. W. P. C. van Overlveld, G. R. M. M. Haenen, J. Rhemrev, J. P. W. Vermeiden and A. Bast (Tyrosine as important contributor to the antioxidant capacity of seminal plasma, Chemical and Biological Interactions, 2000, 127: 151-161), which is valid for calculating the TEAC value of a pure compound, which provokes a decrease in the absorbency which linearly increases as the concentration is increased. In this case, it would only be necessary to calculate a certain concentration of a compound in order to be able to calculate its TEAC value.
The value 0.2845 represents the decrease in absorbency caused by 1 mM of 6-hydroxy-2,5,7,8-tetramethylchroman-2-carboxylic acid.

Wistar-Kyoto rats (WKY) = test: Systolic arterial pressure (tail cuff) in normotense Wistar-Kyoto rats; assay type: in vivo, rat; conditions: highest dose used, intragastric probe
Description: The effect is studied of various identified peptides and of some products containing them (for example egg white hydrolysed with pepsin for 3 hours and the fraction of it less than 3000 Da) on the arterial pressure of spontaneously hypertensive rats (SHR) and Wistar-Kyoto rats (WKY) which are the normotense controls for the SHR.
This study is conducted with SHR (10) and WKY of 17-24 weeks old and weight between 300 and 350 g, coming from Charles River Laboratories España, S. A. The rats are kept in cages of five by five and maintained at a stable temperature of 25° C. with light-dark cycles of 12 hours, ingesting freely available water and food. In order to carry out the measurement of systolic arterial pressure (SAP) “tail cuff” equipment is used (Le5001, Letica) which automatically provides a digital value of the SAP and records and facilitates the cardiac frequency of the animals. Various measurements are made and the average of all of them is obtained in order to achieve a reliable value of the SAP. Before positioning the cuff and transducer in the tail of the rats, the rats are exposed to a temperature of close to 30° C. in order to facilitate dilation of the caudal artery. Also, in order to ensure the reliability of the measurement, the animals are made to get used to the procedure for two weeks prior to conducting each assay in question.
The administration of the products to be assayed is done by means of an intragastric probe in a time margin of between 9 and 10 o'clock in the morning. The SHR used for the study had SAP values of between 230 and 280 mm Hg. The WKY used for the study at that moment had SAP values of between 160 and 200 mm Hg. Measurements of the SAP were taken from the animals periodically, every 2 hours, up to 8 hours post-administration of the products to be assayed; in addition, a SAP measurement was taken 24 hours after the administration of those products. As negative control (in order to establish the circadian variation of the SAP in probed rats) the measurements of the SAP obtained in rats which had been administered 1 ml of water by means of intragastric probe were used. As positive control, the measurements of the SAP obtained in rats which had been administered 50 mg/kg of Captopril (prototype ACEI drug) by means of intragastric probe were used. This dose of Captopril was administered to each rat in a volume of 1 ml. In order to establish the effect of the unhydrolysed egg white on the arterial pressure of the animals, similar assays to those described above were conducted, in which the animals were treated by the same procedure with 200 mg/kg of previously freeze-dried egg white (reference).
The results obtained are grouped and the mean±the standard error of measurement (SEM) is obtained for a minimum of 9 homogenous assays. […]

CC[C@H](C)[C@H](NC(=O)[C@@H]1CCCN1C(=O)[C@H](Cc1ccc(O)cc1)NC(=O)[C@H](CCCNC(=N)N)NC(=O)[C@H](CCC(=O)O)NC(=O)[C@H](CCC(=O)O)NC(=O)[C@H](C)NC(=O)[C@@H](N)Cc1ccc(O)cc1)C(=O)N[C@@H](CC(C)C)C(=O)O [SEQ. ID. N^o 6] (H-YAEERYPIL-OH; N-terminus and C-terminus assumed)
antioxidant activity towards free radicals (in words) [1]: possesses antioxidant activity | times more antioxidant activity than 6-hydroxy-2,5,7,8-tetramethylchroman-2-carboxylic acid ([1]; 1 mg versus 1 mg): 1.3 times | TEAC (Trolox equivalent antioxidant capacity) ([1]; 1 minute): 0.8 | TEAC (Trolox equivalent antioxidant capacity) ([1]; 6 minutes): 1.2 | TEAC (Trolox equivalent antioxidant capacity) ([1]; 10 minutes): 1.3 | change in SAP in normotense rats (in words) (Wistar-Kyoto rats (WKY)): not in normotensed Wistar-Kyoto rats; also recorded: none of these compounds modifies the SAP
